pIC50: −log10 of the molar value.
Experiments:
DUSP3 = DUSP3 (Homo sapiens, UniProt P51452); test: DUSP3 phosphatase inhibition assay; assay type: biochemical
human platelets = assay type: cell-based
HePTP = biological target: T1, HePTP (Homo sapiens, UniProt P35236); test: PTP selectivity profiling; assay type: biochemical
T1 sequence (P35236 1-360): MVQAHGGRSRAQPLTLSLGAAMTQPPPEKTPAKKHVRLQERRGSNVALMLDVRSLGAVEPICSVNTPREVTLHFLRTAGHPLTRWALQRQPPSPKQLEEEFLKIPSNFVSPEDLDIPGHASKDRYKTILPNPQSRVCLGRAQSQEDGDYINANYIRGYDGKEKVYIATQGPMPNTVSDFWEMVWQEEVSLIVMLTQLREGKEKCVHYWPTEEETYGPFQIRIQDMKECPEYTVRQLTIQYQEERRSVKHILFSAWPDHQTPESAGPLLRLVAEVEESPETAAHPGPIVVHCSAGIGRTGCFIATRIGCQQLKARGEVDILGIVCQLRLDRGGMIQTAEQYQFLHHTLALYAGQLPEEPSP

[1] = test system: DUSP3-deficient platelets; test: Platelet aggregation in washed platelets from Dusp3-KO mice; conditions: Dusp3-KO mouse washed platelets, 3.7 μM, pre-incubated 30 min
DUSP22 = biological target: T2, DUSP22 (Homo sapiens, UniProt Q9NRW4); test: PTP selectivity profiling; assay type: biochemical
T2 sequence (Q9NRW4 1-184): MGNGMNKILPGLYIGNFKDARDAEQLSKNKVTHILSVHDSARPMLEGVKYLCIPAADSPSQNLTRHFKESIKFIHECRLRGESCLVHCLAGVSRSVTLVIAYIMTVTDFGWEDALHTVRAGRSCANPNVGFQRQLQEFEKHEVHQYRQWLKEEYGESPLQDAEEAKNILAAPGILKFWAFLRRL

STEP = biological target: T3, STEP (Homo sapiens, UniProt P54829); test: PTP selectivity profiling; assay type: biochemical
T3 sequence (P54829 1-565): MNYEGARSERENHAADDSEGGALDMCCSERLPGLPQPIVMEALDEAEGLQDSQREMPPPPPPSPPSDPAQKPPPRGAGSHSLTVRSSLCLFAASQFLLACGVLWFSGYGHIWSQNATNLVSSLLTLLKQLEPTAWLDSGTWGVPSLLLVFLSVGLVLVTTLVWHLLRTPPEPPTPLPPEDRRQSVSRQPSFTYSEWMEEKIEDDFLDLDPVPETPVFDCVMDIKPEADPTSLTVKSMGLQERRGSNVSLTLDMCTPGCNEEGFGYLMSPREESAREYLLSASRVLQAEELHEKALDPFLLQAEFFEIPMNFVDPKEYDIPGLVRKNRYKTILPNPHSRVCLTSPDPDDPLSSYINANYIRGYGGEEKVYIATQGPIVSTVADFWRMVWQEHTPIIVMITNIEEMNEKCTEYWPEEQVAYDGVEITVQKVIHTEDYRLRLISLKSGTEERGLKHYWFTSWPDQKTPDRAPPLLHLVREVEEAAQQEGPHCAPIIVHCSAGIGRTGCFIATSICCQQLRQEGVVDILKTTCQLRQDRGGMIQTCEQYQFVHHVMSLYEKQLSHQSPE

LYP = biological target: T4, LYP (Homo sapiens, UniProt Q9Y2R2); test: PTP selectivity profiling; assay type: biochemical
T4 sequence (Q9Y2R2 1-807): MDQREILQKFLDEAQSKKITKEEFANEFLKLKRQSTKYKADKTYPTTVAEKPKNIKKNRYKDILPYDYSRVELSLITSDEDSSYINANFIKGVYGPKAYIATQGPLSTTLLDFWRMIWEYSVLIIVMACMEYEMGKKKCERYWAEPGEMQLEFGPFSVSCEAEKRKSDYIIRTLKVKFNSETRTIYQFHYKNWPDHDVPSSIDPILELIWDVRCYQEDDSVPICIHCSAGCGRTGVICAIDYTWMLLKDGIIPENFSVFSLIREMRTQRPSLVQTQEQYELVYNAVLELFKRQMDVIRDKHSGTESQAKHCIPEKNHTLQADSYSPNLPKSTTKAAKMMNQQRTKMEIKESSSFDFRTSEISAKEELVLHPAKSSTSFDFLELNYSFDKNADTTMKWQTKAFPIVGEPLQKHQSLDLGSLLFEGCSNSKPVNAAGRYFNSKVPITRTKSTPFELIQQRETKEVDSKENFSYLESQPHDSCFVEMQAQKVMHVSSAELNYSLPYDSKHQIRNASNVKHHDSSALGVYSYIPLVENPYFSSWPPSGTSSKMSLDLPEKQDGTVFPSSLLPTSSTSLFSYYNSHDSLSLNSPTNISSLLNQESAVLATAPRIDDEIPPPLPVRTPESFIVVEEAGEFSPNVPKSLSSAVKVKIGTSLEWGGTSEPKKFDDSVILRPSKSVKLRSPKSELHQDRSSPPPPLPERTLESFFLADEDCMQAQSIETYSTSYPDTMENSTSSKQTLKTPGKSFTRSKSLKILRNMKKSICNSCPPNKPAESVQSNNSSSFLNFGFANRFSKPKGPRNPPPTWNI

CD45 = biological target: T5, CD45 (Homo sapiens, UniProt P08575); test: PTP selectivity profiling; assay type: biochemical
T5 sequence (P08575 26-1306): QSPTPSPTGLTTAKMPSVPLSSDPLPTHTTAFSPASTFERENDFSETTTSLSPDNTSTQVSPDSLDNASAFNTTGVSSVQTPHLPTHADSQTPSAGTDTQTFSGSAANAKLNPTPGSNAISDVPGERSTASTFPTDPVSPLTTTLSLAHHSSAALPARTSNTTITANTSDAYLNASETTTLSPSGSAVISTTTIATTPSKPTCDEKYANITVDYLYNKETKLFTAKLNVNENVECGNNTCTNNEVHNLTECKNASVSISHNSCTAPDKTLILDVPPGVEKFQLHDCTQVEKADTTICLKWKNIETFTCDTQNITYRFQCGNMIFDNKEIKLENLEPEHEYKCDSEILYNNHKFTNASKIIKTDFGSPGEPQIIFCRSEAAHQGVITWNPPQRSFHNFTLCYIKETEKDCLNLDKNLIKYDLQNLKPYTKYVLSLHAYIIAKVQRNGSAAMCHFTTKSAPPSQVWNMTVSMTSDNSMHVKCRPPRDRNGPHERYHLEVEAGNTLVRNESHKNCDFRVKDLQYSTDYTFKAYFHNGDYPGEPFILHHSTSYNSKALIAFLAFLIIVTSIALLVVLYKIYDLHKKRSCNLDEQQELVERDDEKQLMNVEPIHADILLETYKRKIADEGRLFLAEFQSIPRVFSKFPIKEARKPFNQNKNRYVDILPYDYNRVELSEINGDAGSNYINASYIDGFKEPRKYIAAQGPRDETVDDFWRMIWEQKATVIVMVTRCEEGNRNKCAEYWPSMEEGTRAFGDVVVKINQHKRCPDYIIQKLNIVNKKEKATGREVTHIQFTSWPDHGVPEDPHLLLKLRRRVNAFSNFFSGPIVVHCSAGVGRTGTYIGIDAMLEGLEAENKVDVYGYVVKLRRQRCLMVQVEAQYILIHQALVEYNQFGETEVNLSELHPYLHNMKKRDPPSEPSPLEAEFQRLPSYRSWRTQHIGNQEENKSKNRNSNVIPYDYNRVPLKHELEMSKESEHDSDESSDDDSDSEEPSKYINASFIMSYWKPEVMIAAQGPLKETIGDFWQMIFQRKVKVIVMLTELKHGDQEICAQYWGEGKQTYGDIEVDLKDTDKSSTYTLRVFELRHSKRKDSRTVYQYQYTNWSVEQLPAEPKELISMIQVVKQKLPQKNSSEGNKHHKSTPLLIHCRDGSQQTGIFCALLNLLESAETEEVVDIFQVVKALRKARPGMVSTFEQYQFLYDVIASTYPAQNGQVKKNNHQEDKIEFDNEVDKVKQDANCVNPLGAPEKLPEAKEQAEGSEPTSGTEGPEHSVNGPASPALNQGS

PTP1B = biological target: T6, PTP1B (Homo sapiens, UniProt P18031); test: PTP selectivity profiling; assay type: biochemical
T6 sequence (P18031 1-435): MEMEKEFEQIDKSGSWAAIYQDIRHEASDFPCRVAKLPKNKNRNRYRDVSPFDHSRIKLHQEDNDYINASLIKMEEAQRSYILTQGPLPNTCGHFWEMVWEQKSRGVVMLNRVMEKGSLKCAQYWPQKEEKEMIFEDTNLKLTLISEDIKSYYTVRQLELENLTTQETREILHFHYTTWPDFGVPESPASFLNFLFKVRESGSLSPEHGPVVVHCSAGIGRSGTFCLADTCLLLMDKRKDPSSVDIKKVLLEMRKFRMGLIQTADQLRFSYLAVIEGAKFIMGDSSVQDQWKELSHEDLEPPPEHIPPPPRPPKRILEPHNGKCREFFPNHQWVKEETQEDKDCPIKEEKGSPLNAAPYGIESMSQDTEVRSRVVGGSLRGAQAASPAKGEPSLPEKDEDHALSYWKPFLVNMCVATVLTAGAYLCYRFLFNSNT

PTP-SL = test: PTP selectivity profiling; assay type: biochemical
TCPTP = biological target: T7, TCPTP (Homo sapiens, UniProt P17706); test: PTP selectivity profiling; assay type: biochemical
T7 sequence (P17706 1-415): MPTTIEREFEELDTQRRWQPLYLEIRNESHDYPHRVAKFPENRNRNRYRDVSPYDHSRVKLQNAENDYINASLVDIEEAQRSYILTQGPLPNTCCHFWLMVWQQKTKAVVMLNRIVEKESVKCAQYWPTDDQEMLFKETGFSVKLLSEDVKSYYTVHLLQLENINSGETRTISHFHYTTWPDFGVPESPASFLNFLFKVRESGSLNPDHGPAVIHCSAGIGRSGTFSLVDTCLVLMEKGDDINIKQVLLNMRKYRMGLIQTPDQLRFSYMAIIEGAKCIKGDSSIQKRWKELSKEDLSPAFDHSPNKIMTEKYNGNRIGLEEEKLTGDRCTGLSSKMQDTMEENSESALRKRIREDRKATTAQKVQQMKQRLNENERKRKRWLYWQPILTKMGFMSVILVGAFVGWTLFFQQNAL

LAR = LAR (Homo sapiens, UniProt P10586); test: PTP selectivity profiling; assay type: biochemical
LAR, sequence (P10586 30-1907, species assumed): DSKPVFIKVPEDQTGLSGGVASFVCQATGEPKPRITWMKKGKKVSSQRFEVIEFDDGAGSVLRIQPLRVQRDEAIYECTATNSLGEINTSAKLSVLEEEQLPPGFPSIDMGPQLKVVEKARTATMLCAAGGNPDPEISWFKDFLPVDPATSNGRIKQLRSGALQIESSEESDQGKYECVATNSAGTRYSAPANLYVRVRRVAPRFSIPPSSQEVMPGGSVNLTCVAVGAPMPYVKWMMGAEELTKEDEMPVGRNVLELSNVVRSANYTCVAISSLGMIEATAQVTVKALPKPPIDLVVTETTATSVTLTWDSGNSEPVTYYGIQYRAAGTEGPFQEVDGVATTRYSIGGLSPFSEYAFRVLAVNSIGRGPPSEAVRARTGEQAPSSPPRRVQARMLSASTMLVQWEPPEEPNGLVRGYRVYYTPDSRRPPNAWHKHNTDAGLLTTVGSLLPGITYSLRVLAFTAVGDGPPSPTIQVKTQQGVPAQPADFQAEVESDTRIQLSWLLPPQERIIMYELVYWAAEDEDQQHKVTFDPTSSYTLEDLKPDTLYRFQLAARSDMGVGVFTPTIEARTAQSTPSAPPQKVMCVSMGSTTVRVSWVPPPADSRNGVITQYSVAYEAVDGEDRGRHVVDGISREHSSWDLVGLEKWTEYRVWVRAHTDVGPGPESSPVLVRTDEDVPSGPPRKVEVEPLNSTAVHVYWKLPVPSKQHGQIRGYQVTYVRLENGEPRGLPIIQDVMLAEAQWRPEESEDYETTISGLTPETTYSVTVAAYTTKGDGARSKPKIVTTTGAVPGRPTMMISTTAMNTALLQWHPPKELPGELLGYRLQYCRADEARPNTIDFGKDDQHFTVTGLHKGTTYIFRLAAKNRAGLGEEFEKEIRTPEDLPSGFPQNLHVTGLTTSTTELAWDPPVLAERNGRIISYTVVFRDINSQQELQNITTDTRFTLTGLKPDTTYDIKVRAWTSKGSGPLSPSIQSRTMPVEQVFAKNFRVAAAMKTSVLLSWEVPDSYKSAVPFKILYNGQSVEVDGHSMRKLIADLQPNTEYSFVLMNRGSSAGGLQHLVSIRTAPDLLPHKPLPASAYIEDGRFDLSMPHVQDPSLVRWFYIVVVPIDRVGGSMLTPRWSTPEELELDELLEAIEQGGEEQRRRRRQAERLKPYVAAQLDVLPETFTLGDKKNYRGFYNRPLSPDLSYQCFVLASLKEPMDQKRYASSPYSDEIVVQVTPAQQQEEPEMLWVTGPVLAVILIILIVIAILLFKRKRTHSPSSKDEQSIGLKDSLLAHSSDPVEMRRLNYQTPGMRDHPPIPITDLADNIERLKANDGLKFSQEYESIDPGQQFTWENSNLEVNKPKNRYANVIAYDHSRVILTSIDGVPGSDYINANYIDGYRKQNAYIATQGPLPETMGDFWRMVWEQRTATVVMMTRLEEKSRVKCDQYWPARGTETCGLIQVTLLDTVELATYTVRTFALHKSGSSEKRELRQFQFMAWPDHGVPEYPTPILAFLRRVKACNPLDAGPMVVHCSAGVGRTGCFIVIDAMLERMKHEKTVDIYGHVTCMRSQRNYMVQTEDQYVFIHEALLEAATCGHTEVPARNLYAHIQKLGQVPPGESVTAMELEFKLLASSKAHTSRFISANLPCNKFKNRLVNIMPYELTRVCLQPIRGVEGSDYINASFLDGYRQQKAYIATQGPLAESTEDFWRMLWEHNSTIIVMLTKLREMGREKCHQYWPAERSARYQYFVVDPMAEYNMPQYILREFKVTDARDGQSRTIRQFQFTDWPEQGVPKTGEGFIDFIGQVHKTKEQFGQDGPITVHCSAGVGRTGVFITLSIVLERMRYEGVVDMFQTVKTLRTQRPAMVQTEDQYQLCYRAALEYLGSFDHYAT

DUSP6 = biological target: T8, DUSP6 (Homo sapiens, UniProt Q16828); test: PTP selectivity profiling; assay type: biochemical
T8 sequence (Q16828 1-381): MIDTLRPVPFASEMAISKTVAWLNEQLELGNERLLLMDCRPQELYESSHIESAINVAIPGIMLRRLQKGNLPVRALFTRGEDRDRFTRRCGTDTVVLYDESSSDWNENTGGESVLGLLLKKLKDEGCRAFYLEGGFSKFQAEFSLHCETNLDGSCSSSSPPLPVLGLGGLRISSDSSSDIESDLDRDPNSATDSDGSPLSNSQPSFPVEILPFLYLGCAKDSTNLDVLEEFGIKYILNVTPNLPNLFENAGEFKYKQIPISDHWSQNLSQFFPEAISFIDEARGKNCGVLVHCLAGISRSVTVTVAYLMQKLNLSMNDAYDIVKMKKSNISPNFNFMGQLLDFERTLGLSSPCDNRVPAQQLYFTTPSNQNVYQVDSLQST

[2] = DUSP3, HTS hits, text (Supplemental Table S2)

DUSP3, sequence (P51452 whole entry): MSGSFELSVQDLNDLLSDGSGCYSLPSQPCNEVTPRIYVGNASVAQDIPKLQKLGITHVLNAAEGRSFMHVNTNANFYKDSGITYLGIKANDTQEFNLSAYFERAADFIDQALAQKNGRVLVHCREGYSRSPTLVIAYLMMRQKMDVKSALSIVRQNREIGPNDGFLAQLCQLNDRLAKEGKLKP

| pIC50 (DUSP3; [2]) | Structure (SMILES) | pIC50 (DUSP3; DUSP3) | Tyrosine phosphorylation of immunoprecipitated Syk and PLCγ2 (human platelets; human platelets, CRP- or rhodocytin-activated) | Global tyrosine phosphorylation (pY) of ~70-kDa band (human platelets; total lysates of human platelets after stimulation with CRP or rhodocytin) | pIC50 (HePTP) | Effect on aggregation of DUSP3-deficient platelets [1] | selectivity for DUSP3 over DUSP22 (DUSP22; DUSP3 over DUSP22) | pIC50 (DUSP22; DUSP22) | pIC50 (STEP) | pIC50 (LYP) | pIC50 (CD45) | pIC50 (PTP1B) | pIC50 (PTP-SL) | pIC50 (TCPTP) | pIC50 (LAR) | pIC50 (DUSP6) |
| --- | --- | --- | --- | --- | --- | --- | --- | --- | --- | --- | --- | --- | --- | --- | --- | --- |
| 5.57 | COc1ccc(-c2nnc(Nc3nc4c(OC)cccc4s3)o2)cc1 [MLS-0049585] |  |  |  |  |  |  |  |  |  |  |  |  |  |  |  |
| 6.43 | COc1cc(C(=S)N2CCCCC2)ccc1O [MLS-0103602] |  |  |  |  |  |  |  |  |  |  |  |  |  |  |  |
|  | COc1ccc(-c2nnc(Nc3nc4c(F)cccc4s3)o2)cc1 [MLS-0437605] | 5.43 | reduced | caused a decrease in pY | 4.42 | only minimally affected aggregation | 7 fold | 4.59 | < 4.00 | 4.31 | < 4.00 | < 4.00 | 4.89 | 4.26 | < 4.00 | < 4.00 |

From PMC4334727 (Circulation, 2014)
